# Test results reported in ChEMBL document CHEMBL6121005 (Eur J Med Chem, 2025).
# Activity calls are given as the source filed them. No cut-off for these calls is given here.
# Tests used:
# [1] = Acute toxicity in male ICR mouse assessed as effect on body weight at 100 to 1000 mg/kg, po administered for 14 days; type: organism-based; settings: in vivo, 336 h, dose 100-1000 mg/kg, time 14 day
# Mus musculus [2] = experiment: Antialzheimer activity against amyloid beta (1 to 42)-induced ICR mouse cognitive deficit model assessed as increase in alternation performance at 2.5 mg/kg, po administered daily and measured on day 12 by Y-maze test relative to control; type: functional; settings: time 12 day
# PC-12 [3] = experiment: Antioxidant activity against H2O2-induced toxicity in rat PC12 cells at 12.5 uM preincubated for 2 hrs and measured after 24 hrs by CCK-8 assay; type: functional, cell-based; settings: time 26.0 hrs
# [4] = Acute toxicity in male ICR mouse assessed as microscopic spleen damage at 100 to 1000 mg/kg, po administered for 14 days by hematoxylin and eosin staining based assay; type: organism-based; settings: in vivo, 336 h, dose 100-1000 mg/kg, time 14 day
# Cholinesterase [5] = target: T1, Cholinesterase (Homo sapiens, UniProt P06276); experiment: Inhibition of human serum BuChE using butyrylthiocholine iodide as substrate at 10 uM incubated for 10 mins followed by substrate addition by DTNB reagent based Ellman's method relative to control
# [6] = Acute toxicity in male ICR mouse assessed as microscopic kidneys damage at 100 to 1000 mg/kg, po administered for 14 days by hematoxylin and eosin staining based assay; type: organism-based; settings: in vivo, 336 h, dose 100-1000 mg/kg, time 14 day
# PC-12 [7] = experiment: Neuroprotective activity against H2O2-induced rat PC12 cells assessed as protection against H2O2-induced apoptosis by measuring necrotic cells at 50 uM pretreated for 2 hrs followed by H2O2 addition and measured after 24 hrs by Annexin V-FITC/PI staining based flow cytometry analysis (reference value: 0.99 %); type: functional; settings: time 26 hrs
# [8] = Acute toxicity in male ICR mouse assessed as mortality at 100 to 1000 mg/kg, po administered as single dose for 14 days; type: organism-based; settings: in vivo, 336 h, dose 100-1000 mg/kg, time 14 day
# Mus musculus [9] = experiment: Antialzheimer activity in scopolamine-induced temporary memory and cognitive impairment ICR mouse model assessed as alternation performance at 10 mg/kg, po administered daily and measured on day 15 by Y-maze test; type: functional, organism-based; settings: time 15.0 day
# PC-12 [10] = experiment: Neuroprotective activity against H2O2-induced rat PC12 cells assessed as protection against H2O2-induced apoptosis by measuring late apoptotic cells at 50 uM pretreated for 2 hrs followed by H2O2 addition and measured after 24 hrs by Annexin V-FITC/PI staining based flow cytometry analysis (reference value: 7.26 %); type: functional; settings: time 26 hrs
# Mus musculus [11] = experiment: Antialzheimer activity against amyloid beta (1 to 42)-induced ICR mouse memory impairment model assessed as mean escape latency at 2.5 to 10 mg/kg, po administered daily and measured after 15 to 19 days by Morris water maze test; type: functional, organism-based; settings: dose 2.5-10 mg/kg, time 15-19 day
# [12] = Acute toxicity in male ICR mouse assessed as microscopic heart damage at 100 to 1000 mg/kg, po administered for 14 days by hematoxylin and eosin staining based assay; type: organism-based; settings: in vivo, 336 h, dose 100-1000 mg/kg, time 14 day
# Mus musculus [13] = experiment: Antialzheimer activity against scopolamine-induced ICR mouse cognitive deficit model assessed as decrease in movement distance at 2.5 to 10 mg/kg, po administrated daily and measured on last day of training by Morris water maze test; type: functional, organism-based; settings: dose 2.5-10 mg/kg
# [14] = Acute toxicity in male ICR mouse assessed as microscopic liver damage at 100 to 1000 mg/kg, po administered for 14 days by hematoxylin and eosin staining based assay; type: organism-based; settings: in vivo, 336 h, dose 100-1000 mg/kg, time 14 day
# Mus musculus [15] = experiment: Antialzheimer activity against amyloid beta (1 to 42)-induced ICR mouse cognitive deficit model assessed as increase in alternation performance at 10 mg/kg, po administered daily and measured on day 12 by Y-maze test relative to control; type: functional; settings: time 12 day
# PC-12 [16] = experiment: Neuroprotective activity against H2O2-induced rat PC12 cells assessed as protection against H2O2-induced apoptosis by measuring viable cells at 50 uM pretreated for 2 hrs followed by H2O2 addition and measured after 24 hrs by Annexin V-FITC/PI staining based flow cytometry analysis (reference value: 90.8 %); type: functional; settings: time 26 hrs
# Mus musculus [17] = experiment: Antialzheimer activity against amyloid beta (1 to 42)-induced ICR mouse cognitive deficit model assessed as increase in step-through latency time at 5 to 10 mg/kg, po administered daily and measured on day 13 and 14 by step-through passive avoidance test; type: functional, organism-based; settings: dose 5-10 mg/kg, time 13-14 day
# Mus musculus [18] = experiment: Antialzheimer activity in scopolamine- induced ICR mouse assessed as increase in distance travelled within target quadrant at 2.5 to 10 mg/kg, po administered daily and measured after 16 to 20 days by Morris water maze test; type: functional, organism-based; settings: dose 2.5-10 mg/kg, time 16-20 day
# [19] = Acute toxicity in male ICR mouse assessed as microscopic lungs damage at 100 to 1000 mg/kg, po administered for 14 days by hematoxylin and eosin staining based assay; type: organism-based; settings: in vivo, 336 h, dose 100-1000 mg/kg, time 14 day
# Mus musculus [20] = experiment: Antialzheimer activity in amyloid beta (1 to 42 residues) induced ICR mouse memory impairment model assessed as increase in trajectory after platform removal at 2.5 to 10 mg/kg, po administered daily and measured after 15 to 19 days by Morris water maze test; type: functional, organism-based; settings: dose 2.5-10 mg/kg, time 15-19 day
# Cholinesterase [21] = target: T1, Cholinesterase; experiment: Inhibition of human serum BuChE using butyrylthiocholine iodide as substrate incubated for 10 mins followed by substrate addition by DTNB reagent based Ellman's method
# [22] = Acute toxicity in male ICR mouse assessed as microscopic brain damage at 100 to 1000 mg/kg, po administered for 14 days by hematoxylin and eosin staining based assay; type: organism-based; settings: in vivo, 336 h, dose 100-1000 mg/kg, time 14 day
# [23] = Inhibition of H2O2-induced ROS release in rat PC12 cells assessed as mean fluorescence intensity at 50 uM preincubated for 2 hrs followed by H2O2 addition and measured after 24 hrs by DCFH-DA based flow cytometry analysis (reference value: 23904); type: functional, PC-12; settings: time 26 hrs
# Mus musculus [24] = experiment: Antialzheimer activity in scopolamine-induced temporary memory and cognitive impairment ICR mouse model assessed as alternation performance at 2.5 to 5 mg/kg, po administered daily and measured on day 15 by Y-maze test; type: functional, organism-based; settings: dose 2.5-5 mg/kg, time 15.0 day
# Mus musculus [25] = experiment: Antialzheimer activity against amyloid beta (1 to 42)-induced ICR mouse cognitive deficit model assessed as increase in alternation performance at 5 mg/kg, po administered daily and measured on day 12 by Y-maze test relative to control; type: functional; settings: time 12 day
# Mus musculus [26] = experiment: Antialzheimer activity in scopolamine- induced ICR mouse assessed as increase in time spent within target quadrant at 2.5 to 10 mg/kg, po administered daily and measured after 16 to 20 days by Morris water maze test; type: functional, organism-based; settings: dose 2.5-10 mg/kg, time 16-20 day
# Acetylcholinesterase = Acetylcholinesterase (Homo sapiens, UniProt P22303); experiment: Inhibition of human erythrocytes AChE measured after 10 mins by Ellman's method
# Mus musculus [27] = experiment: Antialzheimer activity against scopolamine-induced ICR mouse cognitive deficit model assessed as latency time at 2.5 to 10 mg/kg, po administrated daily and measured on initial day of training by Morris water maze test; type: functional; settings: dose 2.5-10 mg/kg
# [28] = Cytotoxicity against rat PC12 cells assessed as cell viability at 50 uM preincubated for 24 hrs and measured after 4 hrs by CCK-8 assay; type: toxicity, cell-based, PC-12; settings: time 28 hrs, read-out: Activity
# Mus musculus [29] = experiment: Antialzheimer activity against amyloid beta (1 to 42)-induced ICR mouse memory impairment model assessed as decrease in movement distance at 2.5 to 10 mg/kg, po administered daily and measured after 15 to 19 days by Morris water maze test; type: functional, organism-based; settings: dose 2.5-10 mg/kg, time 15-19 day
# Mus musculus [30] = experiment: Antialzheimer activity in scopolamine-induced temporary memory and cognitive impairment ICR mouse model assessed as increase in step-through latency time at 2.5 to 10 mg/kg, po administered daily and measured on day 13 and 14 by step-through passive avoidance test; type: functional, organism-based; settings: dose 2.5-10 mg/kg, time 13-14 day
# Mus musculus [31] = experiment: Antialzheimer activity in amyloid beta (1 to 42 residues) induced ICR mouse assessed as increase in distance travelled within target quadrant at 2.5 to 5 mg/kg, po administered daily and measured after 15 to 19 days by Morris water maze test; type: functional, organism-based; settings: dose 2.5-5 mg/kg, time 15-19 day
# PC-12 [32] = experiment: Cytoprotective against rat PC12 cells assessed as cell viability at 50 uM preincubated for 24 hrs and measured after 4 hrs by CCK-8 assay; type: functional, cell-based
# Mus musculus [33] = experiment: Antialzheimer activity in amyloid beta (1 to 42 residues) induced ICR mouse assessed as increase in time spent within target quadrant at 2.5 to 5 mg/kg, po administered daily and measured after 15 to 19 days by Morris water maze test; type: functional, organism-based; settings: dose 2.5-5 mg/kg, time 15-19 day
# Mus musculus [34] = experiment: Antialzheimer activity in scopolamine-induced ICR mouse assessed as increase in trajectory within target quadrant at 2.5 to 10 mg/kg, po administered daily and measured after 16 to 20 days by Morris water maze test; type: functional, organism-based; settings: dose 2.5-10 mg/kg, time 16-20 day
# PC-12 [35] = experiment: Neuroprotective activity against H2O2-induced rat PC12 cells assessed as protection against H2O2-induced apoptosis by measuring early apoptotic cells at 50 uM pretreated for 2 hrs followed by H2O2 addition and measured after 24 hrs by Annexin V-FITC/PI staining based flow cytometry analysis (reference value: 0.88 %); type: functional; settings: time 26 hrs
# Mus musculus [36] = experiment: Antialzheimer activity against scopolamine-induced ICR mouse cognitive deficit model assessed as decrease in latency time at 2.5 to 10 mg/kg, po administrated daily and measured on last day of training by Morris water maze test; type: functional, organism-based; settings: dose 2.5-10 mg/kg
# T1 sequence (P06276 whole entry): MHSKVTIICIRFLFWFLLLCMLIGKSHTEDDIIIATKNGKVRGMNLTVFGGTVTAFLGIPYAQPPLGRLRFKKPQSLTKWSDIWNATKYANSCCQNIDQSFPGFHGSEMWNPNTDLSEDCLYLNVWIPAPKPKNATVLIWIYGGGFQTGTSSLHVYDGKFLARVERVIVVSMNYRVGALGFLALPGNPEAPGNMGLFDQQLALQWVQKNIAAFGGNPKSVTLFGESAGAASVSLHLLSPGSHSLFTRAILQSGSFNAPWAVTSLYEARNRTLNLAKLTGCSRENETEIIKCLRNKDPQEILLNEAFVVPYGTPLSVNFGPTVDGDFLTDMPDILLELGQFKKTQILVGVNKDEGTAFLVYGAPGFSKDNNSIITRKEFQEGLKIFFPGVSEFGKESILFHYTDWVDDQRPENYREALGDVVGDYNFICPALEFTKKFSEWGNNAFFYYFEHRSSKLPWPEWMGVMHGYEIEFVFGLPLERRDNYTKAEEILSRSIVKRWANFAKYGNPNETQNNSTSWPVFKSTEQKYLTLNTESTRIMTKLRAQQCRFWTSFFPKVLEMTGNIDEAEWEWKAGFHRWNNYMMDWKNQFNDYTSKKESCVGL
# Acetylcholinesterase, sequence (P22303 whole entry): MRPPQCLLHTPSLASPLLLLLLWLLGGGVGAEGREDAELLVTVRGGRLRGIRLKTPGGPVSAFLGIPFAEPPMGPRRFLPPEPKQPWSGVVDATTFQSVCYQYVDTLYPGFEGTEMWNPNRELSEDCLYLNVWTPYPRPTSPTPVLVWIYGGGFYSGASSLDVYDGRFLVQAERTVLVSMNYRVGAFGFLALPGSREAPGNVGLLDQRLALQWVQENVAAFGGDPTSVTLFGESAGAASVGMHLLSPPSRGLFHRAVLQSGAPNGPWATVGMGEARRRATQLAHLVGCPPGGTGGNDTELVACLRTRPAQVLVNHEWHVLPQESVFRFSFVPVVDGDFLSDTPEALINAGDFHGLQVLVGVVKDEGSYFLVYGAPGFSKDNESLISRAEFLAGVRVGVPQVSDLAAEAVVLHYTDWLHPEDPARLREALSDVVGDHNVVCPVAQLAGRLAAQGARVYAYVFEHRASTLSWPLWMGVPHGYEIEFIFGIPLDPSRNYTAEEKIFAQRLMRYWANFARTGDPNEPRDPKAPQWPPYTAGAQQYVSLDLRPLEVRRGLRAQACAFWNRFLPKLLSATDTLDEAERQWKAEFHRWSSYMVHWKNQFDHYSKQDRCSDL
smiles,measurement,setting,value
COc1ccc2c3c1O[C@H]1C[C@@H](OCc4ccc(Cc5ccccc5F)cn4)C=C[C@@]31CCN(C)C2,Activity,[1],Non-toxic
same,Activity,Mus musculus [2],72.91%
same,Activity,PC-12 [3],Dose-dependent-effect
same,Activity,[4],Non-toxic
same,inhibition,Cholinesterase [5],96.5%
same,Activity,[6],Non-toxic
same,Activity,PC-12 [7],1.21%
same,Activity,[8],Non-toxic
same,Activity,Mus musculus [9],inactive
same,Activity,PC-12 [10],7.35%
same,Activity,Mus musculus [11],Active
same,Activity,[12],Non-toxic
same,Activity,Mus musculus [13],Active
same,Activity,[14],Non-toxic
same,Activity,Mus musculus [15],76.91%
same,Activity,PC-12 [16],86%
same,Activity,Mus musculus [17],Active
same,Activity,Mus musculus [18],Dose-dependent-effect
same,Activity,[19],Non-toxic
same,Activity,Mus musculus [20],Active
same,IC50,Cholinesterase [21],358 nM
same,Activity,[22],Non-toxic
same,Flu intensity,[23],41314
same,Activity,Mus musculus [24],Active
same,Activity,Mus musculus [25],73.56%
same,Activity,Mus musculus [26],Dose-dependent-effect
same,IC50,Acetylcholinesterase,514 nM
same,Time,Mus musculus [27],60 s
same,"viability at 4 h, 50 µM",[28],> 90%
same,Activity,Mus musculus [29],Active
same,Activity,Mus musculus [30],Dose-dependent-effect
same,Activity,Mus musculus [31],Active
same,Activity,PC-12 [32],Active
same,Activity,Mus musculus [33],Active
same,Activity,Mus musculus [34],Active
same,Activity,PC-12 [35],5.42%
same,Activity,Mus musculus [36],Active
